Patent publication US9101638B2, “Boronic acid derivatives and therapeutic uses thereof” (Rempex Pharmaceuticals, Inc., priority 2013, dated 2015)

Tests used:
ec308 (SHV-5) [1] = experiment: Potentiation of aztreonam, strain ec308; assay type: cell-based; conditions: minimum BLI concentration inhibiting growth with 4 μg/mL aztreonam
KP1004 (K-2) = experiment: Potentiation of aztreonam, strain KP1004; assay type: cell-based; conditions: minimum BLI concentration inhibiting growth with 4 μg/mL aztreonam
ECL1002 = experiment: Potentiation of aztreonam, strain ECL1002; assay type: cell-based; conditions: minimum BLI concentration inhibiting growth with 4 μg/mL aztreonam
ec308 (SHV-5) [2] = experiment: Potentiation of tigemonam, strain ec308; assay type: cell-based; conditions: minimum BLI concentration inhibiting growth with 4 μg/mL tigemonam
SHV-12 = SHV-12 (Klebsiella pneumoniae, UniProt P0AD64, E235K/G234S/L31Q); experiment: Inhibition of nitrocefin cleavage by purified SHV-12; assay type: biochemical; conditions: nitrocefin reporter substrate, purified enzyme; read-out: Ki (SHV-12, NCF)
Outline: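 Readout: nitrocefin hydrolysis, A490 recorded every 10 sec over 10 min. Enzyme and inhibitor (varied concentrations) preincubated 10 min, RT, in reaction buffer before substrate addition.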

Trypsin = target: T1, Trypsin (Bos taurus, UniProt P00760); experiment: Serine protease inhibition: trypsin; assay type: biochemical, mammalian; conditions: Table 8A, class symbols; read-out: IC50 Trypsin
T1 construct: purchased Calbiochem 6502
T1 sequence (P00760 24-246): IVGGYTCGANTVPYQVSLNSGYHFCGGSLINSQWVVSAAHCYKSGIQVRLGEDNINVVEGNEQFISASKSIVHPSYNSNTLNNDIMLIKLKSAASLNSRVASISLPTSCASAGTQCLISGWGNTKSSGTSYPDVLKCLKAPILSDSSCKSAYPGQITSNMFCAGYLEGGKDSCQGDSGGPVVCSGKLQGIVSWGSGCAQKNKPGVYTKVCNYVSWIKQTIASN
Method: (§1) The effect of selected BLIs on the enzymatic activity of some common mammalian serine proteases was evaluated.
(§2) 50 μl of the diluted enzyme was mixed with 50 μl of inhibitor at various concentrations and 50 μl of corresponding buffer (Table 7). Reaction mixtures were incubated for 10 min at 37° C. Subsequently, 50 μl of corresponding substrate (Table 7) was added and absorbance or fluorescence was monitored for 30 min on SpectraMax M2 plate reader (Molecular Devices). 4-(2-Aminoethyl)benzenesulfonyl fluoride hydrochloride (AEBSF) and leupeptin were used as positive controls. Rates of reaction were calculated and presented relative to “no treatment” control.

Thrombin = target: T2, Thrombin (Homo sapiens, UniProt P00734); experiment: Serine protease inhibition: thrombin; assay type: biochemical, mammalian; conditions: Table 8A, class symbols; read-out: IC50 Thrombin
T2 construct: Thrombin; MPBio; 19491880; purchased MPBio 19491880
Method: as §1, §2

Plasmin = target: T3, Plasmin (Homo sapiens, UniProt P00747); experiment: Serine protease inhibition: plasmin; assay type: biochemical, mammalian; conditions: Table 8A, class symbols; read-out: IC50 Plasmin
T3 construct: Plasmin; MPBio; 19419890; purchased MPBio 19419890
Method: as §1, §2

Elastase = target: T4, Elastase (Sus scrofa, UniProt P00772); experiment: Serine protease inhibition: elastase; assay type: biochemical, mammalian; conditions: Table 8A, class symbols; read-out: IC50 Elastase
T4 construct: purchased Calbiochem 324682
Method: as §1, §2

Chymase = target: T5, Chymase (Homo sapiens, UniProt P23946); experiment: Serine protease inhibition: chymase; assay type: biochemical, mammalian; conditions: Table 8A, class symbols; read-out: IC50 Chymase
T5 construct: purchased Enzo Lifescience BML-SE281
T5 sequence (P23946 22-247): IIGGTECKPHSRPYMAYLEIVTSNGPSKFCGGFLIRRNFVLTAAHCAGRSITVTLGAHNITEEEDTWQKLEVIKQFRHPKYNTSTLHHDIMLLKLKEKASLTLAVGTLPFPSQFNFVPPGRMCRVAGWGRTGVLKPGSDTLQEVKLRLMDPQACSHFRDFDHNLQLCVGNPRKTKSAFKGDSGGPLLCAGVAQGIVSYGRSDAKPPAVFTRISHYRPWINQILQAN
Method: as §1, §2

CathepsinA = target: T6, CathepsinA (Homo sapiens, UniProt P10619); experiment: Serine protease inhibition: cathepsin A; assay type: biochemical, mammalian; conditions: Table 8B; read-out: IC50 CathepsinA
T6 construct: purchased R&D Systems 1049-SE
T6 sequence (P10619 29-480): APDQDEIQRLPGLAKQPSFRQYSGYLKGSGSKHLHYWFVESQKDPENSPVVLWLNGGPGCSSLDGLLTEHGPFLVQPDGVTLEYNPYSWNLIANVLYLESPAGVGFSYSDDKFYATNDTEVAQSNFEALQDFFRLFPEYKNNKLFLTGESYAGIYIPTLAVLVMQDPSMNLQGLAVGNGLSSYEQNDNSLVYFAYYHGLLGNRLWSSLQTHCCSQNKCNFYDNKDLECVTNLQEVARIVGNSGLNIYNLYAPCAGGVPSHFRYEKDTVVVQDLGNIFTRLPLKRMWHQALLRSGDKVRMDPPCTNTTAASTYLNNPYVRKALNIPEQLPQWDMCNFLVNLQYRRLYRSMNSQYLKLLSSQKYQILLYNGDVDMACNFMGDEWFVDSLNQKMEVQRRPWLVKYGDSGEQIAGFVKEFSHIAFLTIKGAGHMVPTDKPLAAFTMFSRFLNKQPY
Outline: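 Each diluted enzyme preincubated 10 min at 37° C with compound at various concentrations in its own buffer, then its substrate added and absorbance or fluorescence followed 30 min. Reaction rates expressed relative to untreated control; AEBSF and leupeptin as positive controls.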

CathepsinG = target: T7, CathepsinG (Homo sapiens, UniProt P08311); experiment: Serine protease inhibition: cathepsin G; assay type: biochemical, mammalian; conditions: Table 8B
T7 construct: purchased EMD Millipore 219373
T7 sequence (P08311 21-244): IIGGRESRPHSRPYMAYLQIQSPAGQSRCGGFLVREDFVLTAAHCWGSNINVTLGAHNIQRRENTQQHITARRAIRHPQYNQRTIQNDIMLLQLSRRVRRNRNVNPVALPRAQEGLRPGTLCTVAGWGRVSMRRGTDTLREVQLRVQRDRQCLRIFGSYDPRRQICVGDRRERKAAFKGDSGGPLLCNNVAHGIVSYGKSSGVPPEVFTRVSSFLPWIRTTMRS
Method: as §1, §2

[3] = target: T8, Dipeptidyl peptidase 7 (DPP7) (Homo sapiens, UniProt Q9UHL4); experiment: Serine protease inhibition: DPP7; assay type: biochemical, mammalian; conditions: Table 8B; read-out: IC50 DPP7
T8 construct: purchased R&D Systems 3438-SE
Method: as §1, §2

[4] = target: T9, Dipeptidyl peptidase 8 (DPP8) (Homo sapiens, UniProt Q6V1X1); experiment: Serine protease inhibition: DPP8; assay type: biochemical, mammalian; conditions: Table 8B; read-out: IC50 DPP8
T9 construct: purchased BPS Bioscience 80080
Method: as §1, §2

[5] = target: T10, Dipeptidyl peptidase 9 (DPP9) (Homo sapiens, UniProt Q86TI2); experiment: Serine protease inhibition: DPP9; assay type: biochemical, mammalian; conditions: Table 8B; read-out: IC50 DPP9
T10 construct: purchased BPS Bioscience 80090
Method: as §1, §2

KP1009 (CTX-M-15) = experiment: Potentiation of tigemonam, strain KP1009; conditions: minimum BLI concentration inhibiting growth with 4 μg/mL tigemonam

T3 sequence (P00747 581-810 limits assumed, species assumed): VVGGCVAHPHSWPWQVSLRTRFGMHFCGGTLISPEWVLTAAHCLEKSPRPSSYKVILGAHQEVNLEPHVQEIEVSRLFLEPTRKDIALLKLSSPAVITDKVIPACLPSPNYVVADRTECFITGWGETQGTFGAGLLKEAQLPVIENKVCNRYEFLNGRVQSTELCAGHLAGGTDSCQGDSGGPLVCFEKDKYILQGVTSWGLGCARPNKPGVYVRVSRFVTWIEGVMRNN
T3 sequence (P00747 97-580 partner limits assumed, species assumed): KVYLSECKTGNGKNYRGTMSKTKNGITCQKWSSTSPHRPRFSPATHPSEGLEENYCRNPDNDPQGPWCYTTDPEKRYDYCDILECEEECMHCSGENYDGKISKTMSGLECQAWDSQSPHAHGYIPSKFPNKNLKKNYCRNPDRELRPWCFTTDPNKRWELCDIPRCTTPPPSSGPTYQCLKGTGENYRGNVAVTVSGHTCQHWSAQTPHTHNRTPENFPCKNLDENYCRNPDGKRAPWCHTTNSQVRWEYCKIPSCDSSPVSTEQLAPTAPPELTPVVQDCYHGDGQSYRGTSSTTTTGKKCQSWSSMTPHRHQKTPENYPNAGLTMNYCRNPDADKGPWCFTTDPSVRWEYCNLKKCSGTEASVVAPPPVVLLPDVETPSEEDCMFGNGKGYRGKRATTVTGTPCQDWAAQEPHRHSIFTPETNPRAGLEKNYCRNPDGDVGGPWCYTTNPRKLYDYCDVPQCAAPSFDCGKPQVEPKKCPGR
T4 sequence (P00772 27-266): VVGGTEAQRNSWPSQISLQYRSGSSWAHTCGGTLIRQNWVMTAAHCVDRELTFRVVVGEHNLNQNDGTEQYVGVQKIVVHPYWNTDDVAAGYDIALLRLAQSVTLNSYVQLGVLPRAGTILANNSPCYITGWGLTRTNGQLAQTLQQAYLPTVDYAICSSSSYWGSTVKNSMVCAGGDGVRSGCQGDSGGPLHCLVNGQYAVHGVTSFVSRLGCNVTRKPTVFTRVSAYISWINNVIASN
T9 sequence (Q6V1X1 whole entry): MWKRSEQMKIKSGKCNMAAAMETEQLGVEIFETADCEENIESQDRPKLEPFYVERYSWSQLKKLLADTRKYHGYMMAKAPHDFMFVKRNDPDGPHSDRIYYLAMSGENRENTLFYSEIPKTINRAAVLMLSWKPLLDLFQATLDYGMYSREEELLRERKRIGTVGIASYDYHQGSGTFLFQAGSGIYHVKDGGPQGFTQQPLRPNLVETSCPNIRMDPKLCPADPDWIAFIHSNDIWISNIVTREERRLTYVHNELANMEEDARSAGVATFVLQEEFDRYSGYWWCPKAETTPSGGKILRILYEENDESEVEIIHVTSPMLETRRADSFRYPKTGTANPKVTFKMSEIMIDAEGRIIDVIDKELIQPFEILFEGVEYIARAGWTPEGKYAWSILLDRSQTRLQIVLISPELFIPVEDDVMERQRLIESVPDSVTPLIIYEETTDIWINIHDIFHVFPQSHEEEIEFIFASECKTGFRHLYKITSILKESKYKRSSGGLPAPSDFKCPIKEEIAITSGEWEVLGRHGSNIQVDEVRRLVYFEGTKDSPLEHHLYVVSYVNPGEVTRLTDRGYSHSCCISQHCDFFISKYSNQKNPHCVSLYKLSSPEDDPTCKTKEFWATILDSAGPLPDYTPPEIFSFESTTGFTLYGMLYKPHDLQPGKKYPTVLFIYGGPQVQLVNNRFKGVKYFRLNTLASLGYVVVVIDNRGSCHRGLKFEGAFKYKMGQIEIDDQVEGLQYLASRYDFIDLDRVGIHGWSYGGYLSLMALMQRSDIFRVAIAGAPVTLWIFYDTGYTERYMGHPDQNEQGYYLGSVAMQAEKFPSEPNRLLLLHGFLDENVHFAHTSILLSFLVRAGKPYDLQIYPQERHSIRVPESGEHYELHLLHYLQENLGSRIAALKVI
T10 sequence (Q86TI2 whole entry): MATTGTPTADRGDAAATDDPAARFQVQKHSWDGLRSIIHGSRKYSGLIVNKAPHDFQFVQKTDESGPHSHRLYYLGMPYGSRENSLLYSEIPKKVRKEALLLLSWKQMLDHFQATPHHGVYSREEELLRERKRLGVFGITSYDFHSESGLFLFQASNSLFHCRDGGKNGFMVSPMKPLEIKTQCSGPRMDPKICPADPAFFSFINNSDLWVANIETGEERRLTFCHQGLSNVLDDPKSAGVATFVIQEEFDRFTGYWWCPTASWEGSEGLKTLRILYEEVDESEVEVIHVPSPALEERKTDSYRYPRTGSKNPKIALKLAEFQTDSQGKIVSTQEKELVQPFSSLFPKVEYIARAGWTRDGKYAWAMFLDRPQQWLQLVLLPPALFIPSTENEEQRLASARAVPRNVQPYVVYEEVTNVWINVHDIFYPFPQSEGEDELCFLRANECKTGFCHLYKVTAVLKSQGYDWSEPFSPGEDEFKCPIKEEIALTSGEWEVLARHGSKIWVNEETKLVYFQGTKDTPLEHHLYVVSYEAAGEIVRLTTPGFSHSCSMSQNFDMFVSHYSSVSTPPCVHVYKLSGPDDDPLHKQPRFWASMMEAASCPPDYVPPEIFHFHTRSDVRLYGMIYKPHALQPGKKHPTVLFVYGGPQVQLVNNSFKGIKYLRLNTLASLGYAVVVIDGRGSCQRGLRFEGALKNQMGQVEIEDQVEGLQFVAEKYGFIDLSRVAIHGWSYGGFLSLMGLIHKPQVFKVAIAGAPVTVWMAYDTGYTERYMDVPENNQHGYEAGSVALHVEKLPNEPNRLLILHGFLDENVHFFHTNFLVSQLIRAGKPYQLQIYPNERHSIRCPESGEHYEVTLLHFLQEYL
Sequence of SHV-12 (P0AD64 22-286 L31Q/G234S/E235K): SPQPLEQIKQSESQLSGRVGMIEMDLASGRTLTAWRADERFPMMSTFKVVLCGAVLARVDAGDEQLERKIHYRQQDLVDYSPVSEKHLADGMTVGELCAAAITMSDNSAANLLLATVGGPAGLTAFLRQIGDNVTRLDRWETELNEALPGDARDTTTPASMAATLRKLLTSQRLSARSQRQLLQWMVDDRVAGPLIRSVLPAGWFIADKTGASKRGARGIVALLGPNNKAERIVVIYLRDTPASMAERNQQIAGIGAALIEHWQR

O=C(Cc1cccs1)N[C@H]1Cc2cccc(C(=O)O)c2OB1O [CPD A, reference compound]
AZT MPC4 SHV-5 ec308 (ec308 (SHV-5) [1]): X (X = MIC of less than 1 μg/mL) | AZT MPC4 K-2 KP1004 (KP1004 (K-2)): Y (Y = MIC of 1 μg/mL to 10 μg/mL) | AZT MPC4 ECL1002 (ECL1002): Y (Y = MIC of 1 μg/mL to 10 μg/mL) | TIG MPC4 SHV-5 ec308 (ec308 (SHV-5) [2]): Y (Y = MIC of 1 μg/mL to 10 μg/mL) | Ki (SHV-12): < 0.001 µM | IC50 (Trypsin): > 800 µM | IC50 (Thrombin): < 300 µM | IC50 (Plasmin): > 800 µM | IC50 (Elastase): > 800 µM | IC50 (Chymase): < 300 µM | IC50 (CathepsinA): < 15 µM | IC50 (CathepsinG): < 15 µM | IC50 [3]: > 500 µM | IC50 [4]: 15 to 500 µM | IC50 [5]: 15 to 500 µM | TIG MPC4 CTX-M-15 KP1009 (KP1009 (CTX-M-15)): Y (Y = MIC of 1 μg/mL to 10 μg/mL)

[N-]=[N+]=NCC(=O)N[C@H]1Cc2cccc(C(=O)O)c2OB1O [Compound 8, (R)-3-(2-azidoacetamido)-2-hydroxy-3,4-dihydro-2H-benzo[e][1,2]oxaborinine-8-carboxylic acid]
AZT MPC4 SHV-5 ec308 (ec308 (SHV-5) [1]): X (X = MIC of less than 1 μg/mL) | AZT MPC4 K-2 KP1004 (KP1004 (K-2)): X (X = MIC of less than 1 μg/mL) | AZT MPC4 ECL1002 (ECL1002): Y (Y = MIC of 1 μg/mL to 10 μg/mL) | TIG MPC4 SHV-5 ec308 (ec308 (SHV-5) [2]): Y (Y = MIC of 1 μg/mL to 10 μg/mL) | Ki (SHV-12): < 0.001 µM | IC50 (Trypsin): > 800 µM | IC50 (Thrombin): > 800 µM | IC50 (Plasmin): > 800 µM | IC50 (Elastase): > 800 µM | IC50 (Chymase): > 800 µM | IC50 (CathepsinA): 15 to 500 µM | IC50 (CathepsinG): < 15 µM | IC50 [3]: > 500 µM | IC50 [4]: > 500 µM | IC50 [5]: > 500 µM | TIG MPC4 CTX-M-15 KP1009 (KP1009 (CTX-M-15)): X (X = MIC of less than 1 μg/mL)

Nc1nnc(SCC(=O)N[C@H]2Cc3cccc(C(=O)O)c3OB2O)s1 [Compound 5, (R)-3-(2-(5-amino-1,3,4-thiadiazol-2-ylthio)acetamido)-2-hydroxy-3,4-dihydro-2H-benzo[e][1,2]oxaborinine-8-carboxylic acid]
AZT MPC4 SHV-5 ec308 (ec308 (SHV-5) [1]): X (X = MIC of less than 1 μg/mL) | AZT MPC4 K-2 KP1004 (KP1004 (K-2)): Y (Y = MIC of 1 μg/mL to 10 μg/mL) | AZT MPC4 ECL1002 (ECL1002): Y (Y = MIC of 1 μg/mL to 10 μg/mL) | TIG MPC4 SHV-5 ec308 (ec308 (SHV-5) [2]): Y (Y = MIC of 1 μg/mL to 10 μg/mL) | IC50 (Trypsin): > 800 µM | IC50 (Thrombin): > 800 µM | IC50 (Plasmin): > 800 µM | IC50 (Elastase): > 800 µM | IC50 (Chymase): 300 to 800 µM | IC50 (CathepsinA): 15 to 500 µM | IC50 (CathepsinG): < 15 µM | IC50 [3]: > 500 µM | IC50 [4]: 15 to 500 µM | IC50 [5]: > 500 µM | TIG MPC4 CTX-M-15 KP1009 (KP1009 (CTX-M-15)): X (X = MIC of less than 1 μg/mL)
